Experiments:
[1] = molecular target: T1, mouse semaphorin 3A (Sema3A) (Mus musculus, UniProt O08665); assay: Inhibitory activity for the collapse activity caused by Sema3A (growth cone collapse assay, Test 1); format: cell-based; settings: chick embryo dorsal root ganglion, 3 units/mL mouse Sema3A, smaller value = more potent inhibition, read-out: residual ratio (%) of Sema3A activity (collapse assay)
T1 sequence (O08665 21-772): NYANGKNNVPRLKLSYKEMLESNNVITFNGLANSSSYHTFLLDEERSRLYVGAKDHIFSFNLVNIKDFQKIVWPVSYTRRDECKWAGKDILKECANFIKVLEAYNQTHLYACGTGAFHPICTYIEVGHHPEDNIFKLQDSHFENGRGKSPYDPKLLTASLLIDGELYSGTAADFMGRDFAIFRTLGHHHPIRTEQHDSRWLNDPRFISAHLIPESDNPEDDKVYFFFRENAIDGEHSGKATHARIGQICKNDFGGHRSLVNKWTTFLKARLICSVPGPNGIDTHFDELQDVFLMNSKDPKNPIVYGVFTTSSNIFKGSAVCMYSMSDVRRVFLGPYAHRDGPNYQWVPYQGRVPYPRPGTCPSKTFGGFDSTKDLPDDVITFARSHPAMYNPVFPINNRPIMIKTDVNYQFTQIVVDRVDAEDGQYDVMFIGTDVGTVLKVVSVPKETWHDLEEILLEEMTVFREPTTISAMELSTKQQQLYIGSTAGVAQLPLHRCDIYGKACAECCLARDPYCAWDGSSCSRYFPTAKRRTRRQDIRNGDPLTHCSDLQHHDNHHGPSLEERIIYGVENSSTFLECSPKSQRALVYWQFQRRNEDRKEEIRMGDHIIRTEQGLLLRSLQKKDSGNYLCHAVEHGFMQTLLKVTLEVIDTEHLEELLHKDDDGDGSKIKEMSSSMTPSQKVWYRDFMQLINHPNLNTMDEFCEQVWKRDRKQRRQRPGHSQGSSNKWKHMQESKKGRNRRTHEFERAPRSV
Method: Inhibitory Activity for the Collapse Activity Caused by Sema3A
96 well-plate (SUMITOMO BAKELITE CO., LTD.) which was beforehand coated with polylysine was further coated with laminin (10 μL laminin, at room temperature, for 1 hour). To each well was added 100 μL of a medium (F12 medium containing 10% fetal bovine serum, 20 ng/mL NGF, 100 unit/mL penicillin, and 100 μg/mL streptomycin). Dorsal root ganglion harvested from 7-8 day-old chick embryo was inoculated thereto, and the culture medium was cultivated under the condition of 5% CO2 and 37° C. for 16-20 hours. And then, each test compound in various concentrations was added to the medium, each test medium was cultivated for 30 minutes, 3 units/mL mouse semaphorin 3A (Sema3A) was added to each medium, and then each test medium was cultivated for more 30 minutes. Then, glutaraldehyde was added to the medium, in which the final concentration of glutaraldehyde was 1%. The medium was left to stand at room temperature for 15 minutes to make the tissue fragment fixed, and the ratio of the retracted growth cone was measured under a microscope.

[2] = test system: dry eye-model rat (exorbital lacrimal gland excised); assay: Drug evaluation for corneal disorder in dry eye rat model (Test 5); format: in vivo; settings: 0.01% to 1% ophthalmic solutions, 1 μL per shot, twice per day, 4 weeks; ** denotes p<0.01
Method: Drug Evaluation for Corneal Disorder in Dry Eye Rat Model
For the corneal disorder in the model rat whose exorbital lacrimal gland is excised, the drug effect was evaluated about hyaluronic acid (HA) which is an existing drug, and the present compound.
Male SD rat was anesthetized with inhalational isoflurane, and the exorbital lacrimal gland thereof was excised to prepare a dry eye-model rat (the conditions to prepare the dry eye-model rat can be changed as necessary, for example, by combining the excision of exorbital lacrimal gland with the medication of streptozotocin or the like). Three weeks after the operation, each vehicle for eye drop (typically phosphate-buffered saline (PBS)), and 0.01%, 0.1%, and 1% the ophthalmic solutions of the present compound (Example 19) were administered to the rat in an awareness at 1 μL per shot, twice per day, for 4 weeks.
The scoring of disorder extent in the site of corneal disorder was evaluated with 4 grades of the evaluation criteria of 0-3 according to Test 3.
The statistical significance for the drug effect was evaluated by nonparametric Tukey's multiple comparison test, in which the result of each test group was compared with that of the vehicle-administration group (PBS) in which the rat's exorbital lacrimal gland is excised.

## Cn1cc(-c2coc3cc(O)c(O)c(C(=O)OCC(=O)N[C@@H](CCC(=O)O)C(=O)O)c3c2=O)c(=O)c2cc(O)c(O)cc21 [Example 19, N-[({[3-(6,7-Dihydroxy-1-methyl-4-oxo-1,4-dihydroquinolin-3-yl)-6,7-dihydroxy-4-oxo-4H-chromen-5-yl]carbonyl}oxy)acetyl]-L-glutamic acid]
[1]; 1 μM test compound
  remaining activity at 1 µM: 4.2%
[1]; 3 μM test compound
  remaining activity at 3 µM: 0%
[2]
  improvement for corneal disorder (fluorescein staining score 0-3) vs vehicle-administration group (PBS): marked improvement

Reference: patent US11440905B2, “Biheterocyclic compound” (SUMITOMO PHARMA CO., LTD., priority 2016, dated 2022)
